Values quoted from earlier work in patent publication US9180152B2, “Method for treating psoriasis” (NIKKEN SOHONSHA CORPORATION, priority 2009, dated 2015).

Test system: Psoriasis
Conditions: well-tolerated oral doses

With `CC1=C(/C=C/C(C)=C\C=C\C(C)=C\C(=O)O)C(C)(C)CCC1` [9-cis-retinoic acid] as the compound, how does the response of psoriasis read?
The response of psoriasis was “did not respond”.
